Reference: US6806267B1, “Apoptosis-inducing compounds” (priority 1998, dated 2004)

Experiments:
Format in all cases: cell-based, human
[1] = test system: p38; assay: Western blot of p38 activation in K562 cells; details: K562, 5 min up to 8 hours
[2] = test system: JNK1 and JNK2; assay: Western blot of JNK activation in Lama 84 and KYO.1 cells; details: Lama 84 and KYO.1, 45 minutes
[3] = test system: MCF-7 cells; assay: Apoptosis in MCF-7 cells
Method: MCF-7 cells were maintained in minimum essential medium supplemented with non-essential amino acids (1% v/v), glutamine (1 mM), FCS (10%) and sub-cultured by the protocol described for Hela cells.
In all experiments performed, cells were seeded at a density of 3×10^5 cells/ml into 24-well plates (1 ml well) and immediately treated with the indicated compound. All drugs were diluted from freshly prepared ethanol stock solutions. The final concentration of ethanol in the wells was always 1% (vol/vol); a concentration which by itself had no effect on the cells tested. Following exposure to the appropriate drug, the cells (100 μL) were cytospun onto glass slides pre-coated with poly-L-lysine using a Cytospin 3™ cytocentrifuige (Shandon). They were then stained using the Rapi-Diff kit (eosinm ethylene blue) under the conditions described by the manufacturer. The percent apoptosis and necrosis was determined by counting approximately 300 cells under a light microscope with the aid of a graticule inserted into the eyepiece. At least 3 fields of view per slide, with an average of approximately 100 cells per field, were counted.

[4] = test system: K562 cells; assay: Apoptosis in K562 cells, cytospin and staining; details: K562, 16 hours
[5] = test system: NFκB; assay: NF kappa B binding activity, HL-60 nuclear extracts; details: HL-60 cells
Method: (§1) Cells were fractionated, and nuclear extracts were prepared as described by Stylianou et al. (1992). Briefly, cells were added to ice-cold phosphate-buffered saline and centrifuged using a swing out rotor at 136×g. They were washed in buffer A (10 mM Hepes, pH 7.9, 1.5 mM MgCl2, 10 mM KCl, […] [PMSF]) and centrifuged at 10000×g for 10 min. They were treated with buffer A+0.1% (vol/vol) Nonidet P40 on ice for 10 min. They were then centrifuged at 10000×g for 10 min and the pellet was treated with buffer C (20 mM Hepes, pH 7.9, 420 mM NaCl, 1.5 mM MgCl2, 2 mM EDTA, 20% [vol/vol] glycerol, 0.5 mM PMSF) on ice for 15 min. This material was centrifuged at 10000×g for 10 min and the supernatant was added to 75 u l of buffer D [10 mM Hepes, pH 7.9, 50 mM KCl, 0.2 mM EDTA, 20% (vol/vol) glycerol, 0.5 mM PMSF] per sample. The protein concentration in this crude nuclear extract was determined using the method of Bradford (1976). Protein (4 μg) was incubated with 10000 cpm of a ^32P-labelled oligonucleotide, containing the consensus sequence for NF kappa B, with binding buffer [40% (vol/vol) glycerol, 1 mM EDTA, 10 mM Tris, pH 7.5, 100 mM NaCl, 0.1 mg/ml nuclease free BSA] and 2 μg of poly(dI-dC) at room temperature for 30 min. Samples were resolved on a 5% native polyacrylamide gel which was subsequently dried and autoradiographed at −70° C. overnight.

[6] = test system: BCR-abl; assay: Western blot analysis of BCR-abl in CML cells
[7] = test system: p42-44; assay: Western blot of p42-44 activation in K562 cells
[8] = test system: tyrosine phosphorylated proteins; assay: Protein tyrosine phosphorylation Western blot, K562 cells
Method: Jurkat and CML cells (5×10^6) were harvested by centrifuigation at 1800 g for 10 min at 4° C. After being washed once with ice-cold phosphate-buffered saline, the cell pellet was suspended in 100 μl of ice-cold lysis buffer (50 mM Tris-HCl, pH 8.0, 150 mM NaCl, 0.1%.SDS, 1% Triton X-100, 1 mM sodium 1 mM phenylmethylsulfonyl, 10 ng/ml leupeptin and 10 ng/ml of aprotinin). The cells were left to sit on ice for 10 min and then centrifuged at 20,000 g for 20 min. The resulting supernatant was stored at −70° C. until measurement of tyrosine phosphorylation. Protein determination was measured by using the Bradford assay. Equal amounts of protein were resolved by SDS-polyacrylamide gel electrophoresis in 15% gels and transferred onto polyvinylidene difluoride (PVDF) membranes. Membranes were blocked with Tris-buffered saline with Tween 20 (10 mM Tris-HCl, pH 8.0, 150 mM NaCl, 0.05% Tween 20) containing 1% w/v BSA and probed with anti-phosphotyrosine antibody. Blots were washed, incubated with goat anti-mouse IgG peroxidase conjugate and developed by ECL according to the manufacturer's recommendations.

[9] = test system: Jurkat cells; details: 1 hour, then etoposide 16 hours
[10] = test system: K562 cells; details: 3 hours
Method: This assay was set up as described by Kohn et al., 1976 with the following modifications.
Cells were seeded at 0.4×10^6 cells/ml and were in the logarithmic phase of growth. […] Cells harvested for the experiments were at a density of 2×10^6 cells/ml.
Cells (1×10^6) were labelled with [^3H] thymidine (sp. act. 2 Ci/mmol) (0.2 μCi/ml) and 1 μM unlabelled thymidine, and incubated for 20 hr. Cells were harvested by centrifugation at 500×g for 5 mins following by two washes in PBS and the pellet was resuspended in 3 ml of PBS. Cells were aliquoted into 1 ml amounts in a 24 well plate and allowed to recover for 1 hr at 37° C. before treating with indicated compounds. Following treatment, cells were washed once in PBS and resuspended in 250 μl of PBS. An aliquot of cells (200 μl) was loaded directly onto a 25 mm diameter glass fiber filter, pore size of 0.2 μM. The cells were lysed on the filter by the addition of 5 ml lysis buffer (2% (w/v) SDS, 10 mM disodium EDTA (pH 10) supplemented with 0.5 mg/ml proteinase K. The lysis buffer was allowed to flow slowly through the filter without suction. Filters were washed using 3 ml wash solution (0.02M Na3EDTA pH 10) allowing it to flow without suction. Filters were eluted in the dark with an alkaline solution (0.04M EDTA plus tetrapropylammonium hydroxide (10% in H2O ) added in the amount required to give pH 12.1). The elution apparatus consisted of a filter funnel with output tubing passing through a peristaltic pump to a collector. Elution took place overnight at a flow rate of 0.05 ml/min. Following elution, filters were treated with 0.4 ml HCl (1N) for 1 hr at 70° C. followed by 2.5 ml NaOH (0.4N) for 30 min at room temp. Scintillation fluid (10 ml) was added and radioactivity remaining on the filters was determined by scintillation counting.

[11] = test system: NFκB; assay: NF kappa B binding activity, Hut-78 cells
Method: as §1

SMILES: CN(C)C(=O)OC1=C(c2cccc3ccccc23)Oc2ccccc2-n2cccc21 [PBOX-6, 7-((Dimethylcarbamoyl)oxy)-6-(1-naphthyl)pyrrolo[2,1-d][1,5]benzoxazepine]
- activation of p38 [1]: failed to activate p38
- activation of JNK1 and JNK2 [2]: found to be activated
- concentration at which morphological features of apoptosis were first observed [3]: 5 μM
- cells that had undergone apoptosis [4]: 40-50%
- effect on NFκB [5]: failed to affect NFκB expression
- BCR-abl expression ([6]; K562 and KYO.1 cells): downregulation of BCR-abl was detected, but not until 24 hours
- downregulation of BCR-abl ([6]; Lama 84 cells, up to 72 hours): not detected
- activation of p42-44 [7]: not activated
- tyrosine phosphorylation status of proteins ([8]; K562, 5, 15 or 30 min): no effect
- tyrosine phosphorylation status of proteins ([8]; K562, 16 hours, proteins approx 63 kDa and 71 kDa): increase in the phosphorylation of two proteins
- effect of pretreatment on etoposide induced apoptosis [9]: does not protect against etoposide induced apoptosis
- DNA strand breaks [10]: did not show any significant increase in DNA strand breaks
- effect on NFκB [11]: had no effect on NFκB
